This is an account of results in ChEMBL document CHEMBL3352002, “Discovery of diethyl 2,5-diaminothiophene-3,4-dicarboxylate derivatives as potent anticancer and antimicrobial agents and screening of anti-diabetic activity: synthesis and in vitro biological evaluation. Part 1” (Eur J Med Chem, 2014).

One experiment deals with Candida albicans. The experiment can be described thus: Antimicrobial activity against Candida albicans ATCC 10231 assessed as inhibition zone after 24 hrs by agar well diffusion method. Also: test concentration or dose not given here. It counts as functional.
The subject of the next experiment is Staphylococcus aureus. The experiment can be described thus: Antimicrobial activity against Staphylococcus aureus ATCC 6538 assessed as inhibition zone after 24 hrs by agar well diffusion method. Also: test concentration or dose not given here. It counts as functional. Background: A growth-free zone around the sample is the usual read-out of agar diffusion tests.
The subject of a further experiment is MCF7. The experiment can be described thus: Anticancer activity against human MCF7 cells assessed as inhibition of tumor cell proliferation after 48 hrs by MTT assay. It counts as functional, cell-based. Conditions: MCF7, 48 h; call rule not given here. In general terms: Tetrazolium assays rely on reduction of a dye to a coloured formazan, in cell work by metabolically active cells.

In another experiment the test system is Ishikawa. As to the kind of experiment: Anticancer activity against human Ishikawa cells assessed as inhibition of tumor cell proliferation after 48 hrs by MTT assay. Type of experiment: functional, cell-based.
In a further experiment the test system is T47D. As to the kind of experiment: Anticancer activity against human T47D cells assessed as inhibition of tumor cell proliferation after 48 hrs by MTT assay. Type of experiment: functional, cell-based.
For the next experiment, the system named is Escherichia coli. The experiment can be described thus: Antimicrobial activity against Escherichia coli ATCC 11229 assessed as inhibition zone after 24 hrs by agar well diffusion method. Also: test concentration or dose not given here. It counts as functional.
A further experiment concerns HeLa. The experiment can be described thus: Anticancer activity against human HeLa cells assessed as inhibition of tumor cell proliferation after 48 hrs by MTT assay. It counts as functional, cell-based.
The target of experiment [1] is T1, Tyrosine-protein phosphatase non-receptor type 1 (Homo sapiens, UniProt P18031).
T1 sequence (P18031 whole entry): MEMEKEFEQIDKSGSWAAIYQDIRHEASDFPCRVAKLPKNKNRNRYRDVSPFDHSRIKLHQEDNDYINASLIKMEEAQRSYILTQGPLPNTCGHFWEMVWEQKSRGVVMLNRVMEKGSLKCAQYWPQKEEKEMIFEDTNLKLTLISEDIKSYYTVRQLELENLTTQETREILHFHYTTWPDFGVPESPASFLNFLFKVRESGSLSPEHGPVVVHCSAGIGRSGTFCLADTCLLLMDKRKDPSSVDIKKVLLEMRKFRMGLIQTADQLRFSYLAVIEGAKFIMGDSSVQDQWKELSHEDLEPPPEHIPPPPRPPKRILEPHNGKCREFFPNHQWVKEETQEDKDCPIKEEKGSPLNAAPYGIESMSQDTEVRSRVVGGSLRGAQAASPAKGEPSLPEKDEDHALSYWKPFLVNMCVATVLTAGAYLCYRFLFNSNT
As to the kind of experiment: Inhibition of PTP-1B (unknown origin) using pNPP substrate measured after 30 mins. The following applies: for pIC50: read-out: IC50.

pIC50: −log10 of the molar value.

For orientation: pIC50 means the negative decadic logarithm of the IC50, by convention in mol/L. Consider `CCOC(=O)c1c(N)sc(/N=C/c2ccc(F)cc2)c1C(=O)OCC`, for which the “diameter of the inhibition zone (DIZ)” value was 8 mm with Candida albicans, 10 mm with Staphylococcus aureus and below 5.5 mm in the experiment on Escherichia coli. Also, the negative-log IC50 (pIC50) in the experiment on MCF7 is 4.65; with Ishikawa it was 4.49; with T47D, 4.65; in the experiment with HeLa, 4.51. In experiment [1], the IC50 entry is listed as “Not Active”.

For the molecule `C[C@@H]1[C@H](O)[C@@H](C)/C=C/C=C/C=C/C=C/C=C/C=C/C=C/[C@H](O[C@@H]2O[C@H](C)[C@@H](O)[C@H](N)[C@@H]2O)C[C@@H]2O[C@](O)(C[C@@H](O)C[C@@H](O)[C@H](O)CC[C@@H](O)C[C@@H](O)CC(=O)O[C@H]1C)C[C@H](O)[C@H]2C(=O)O` [AMPHOTERICIN B], the “diameter of the inhibition zone (DIZ)” value with Staphylococcus aureus is 15 mm.

For `CCOC(=O)c1c(N)sc(/N=C/c2ccco2)c1C(=O)OCC`, the figures for the “diameter of the inhibition zone (DIZ)” value with Candida albicans, with Staphylococcus aureus and in the experiment on Escherichia coli were below 5.5 mm, 10.5 mm and below 5.5 mm, respectively. The pIC50 is 4.21 in the experiment on MCF7, 4.16 in the experiment with Ishikawa, 4.83 in the experiment on T47D and 4.33 in the experiment with HeLa. Also, the IC50 entry in experiment [1] is on record as “Not Active”.

For `CCOC(=O)c1c(N)sc(/N=C/c2ccccc2)c1C(=O)OCC`, the figures for the “diameter of the inhibition zone (DIZ)” value with Candida albicans, in the experiment with Staphylococcus aureus and with Escherichia coli were 8 mm, 9 mm and below 5.5 mm, respectively. The negative logarithm of the IC50 (pIC50) with MCF7 is 5.21; with Ishikawa it was 4.42; in the experiment on T47D, 4.52; in the experiment on HeLa, 4.51. The IC50 result in experiment [1] is “Not Active”.

Regarding `CCOC(=O)c1c(N)sc(/N=C/c2ccncc2)c1C(=O)OCC`, the “diameter of the inhibition zone (DIZ)” value with Candida albicans was 7 mm; with Staphylococcus aureus, below 5.5 mm; in the experiment with Escherichia coli it was below 5.5 mm. The negative-log IC50 (pIC50) in the experiment with MCF7 was 4.04; with Ishikawa, 3.92; in the experiment on T47D, 5.07; in the experiment with HeLa, 4.45. Besides, the IC50 entry in experiment [1] is recorded as “Not Active”.

Regarding `CC1(C)S[C@@H]2[C@H](NC(=O)[C@H](N)c3ccccc3)C(=O)N2[C@H]1C(=O)O` [AMPICILLIN], the “diameter of the inhibition zone (DIZ)” value in the experiment on Candida albicans is reported as 14 mm; in the experiment with Escherichia coli it was 19 mm.

On to `CCOC(=O)c1c(N)sc(N)c1C(=O)OCC`, for which the “diameter of the inhibition zone (DIZ)” value with Candida albicans is recorded as below 5.5 mm; in the experiment with Staphylococcus aureus, 10 mm; in the experiment on Escherichia coli, below 5.5 mm. In addition, the pIC50 with MCF7 is 4.73; in the experiment on Ishikawa, 4.33; in the experiment with T47D it was 4.94; in the experiment with HeLa, 4.39. Also, in experiment [1], the IC50 entry was “Not Active”.

Consider `CCOC(=O)c1c(N)sc(/N=C/c2ccc(N(C)C)cc2)c1C(=O)OCC`, for which the “diameter of the inhibition zone (DIZ)” value is recorded as 8 mm in the experiment with Candida albicans, 11.5 mm with Staphylococcus aureus and below 5.5 mm with Escherichia coli. Moreover, the pIC50 is 5.24 with MCF7; 4.14 in the experiment on Ishikawa; 4.78 in the experiment with T47D; 3.88 with HeLa; 5.14 in experiment [1].

On to `CCOC(=O)c1c(N)sc(/N=C/c2ccc(OC)cc2)c1C(=O)OCC`, for which the “diameter of the inhibition zone (DIZ)” value with Candida albicans was 9 mm; with Staphylococcus aureus, 9 mm; in the experiment with Escherichia coli, below 5.5 mm. In addition, the negative-log IC50 (pIC50) with MCF7 is 4.79; with Ishikawa, 3.97; in the experiment on T47D it was 4.50; in the experiment with HeLa, 3.72. For the same molecule, the IC50 result in experiment [1] is “Not Active”.

For `CCOC(=O)c1c(N)sc(/N=C/c2ccc([N+](=O)[O-])o2)c1C(=O)OCC`, the results for the “diameter of the inhibition zone (DIZ)” value in the experiment on Candida albicans, with Staphylococcus aureus and in the experiment on Escherichia coli were above 22 mm, 22 mm and 16 mm, respectively. Further, the pIC50 with MCF7 was 5.62; in the experiment on Ishikawa it was 5.12; in the experiment with T47D, 4.80; with HeLa, 5.33; in experiment [1] it was 5.15.

For the molecule `CCOC(=O)c1c(N)sc(/N=C/c2ccc(Br)cc2)c1C(=O)OCC`, the “diameter of the inhibition zone (DIZ)” value in the experiment on Candida albicans, in the experiment with Staphylococcus aureus and in the experiment on Escherichia coli was below 5.5 mm each time. For the same molecule, the pIC50 with MCF7 is 4.90; with Ishikawa, 4.34; in the experiment on T47D it was 4.88; with HeLa, 4.59; in experiment [1], 5.18.

As to `COc1cccc2c1C(=O)c1c(O)c3c(c(O)c1C2=O)C[C@@](O)(C(=O)CO)C[C@@H]3O[C@H]1C[C@H](N)[C@H](O)[C@H](C)O1` [DOXORUBICIN], the pIC50 in the experiment on MCF7 was 5.17; in the experiment on Ishikawa, 5.04; in the experiment on T47D, 4.81; in the experiment on HeLa it was 5.15.

On to `CCOC(=O)c1c(N)sc(/N=C/c2ccc(C)cc2)c1C(=O)OCC`, for which the “diameter of the inhibition zone (DIZ)” value is given as 8 mm in the experiment on Candida albicans, 10 mm in the experiment with Staphylococcus aureus and below 5.5 mm in the experiment on Escherichia coli. For the same molecule, the pIC50 was 5.05 in the experiment on MCF7, 4.28 in the experiment with Ishikawa, 4.43 in the experiment on T47D and 4.38 with HeLa. Besides, in experiment [1], the IC50 entry is reported as “Not Active”.

For the molecule `CCOC(=O)c1c(N)sc(/N=C/c2ccc(Cl)cc2)c1C(=O)OCC`, the “diameter of the inhibition zone (DIZ)” value with Candida albicans, in the experiment on Staphylococcus aureus and in the experiment on Escherichia coli was below 5.5 mm throughout. The negative logarithm of the IC50 (pIC50) with MCF7 was 5.17; in the experiment on Ishikawa, 4.57; in the experiment with T47D it was 4.92; in the experiment with HeLa, 4.60. Moreover, the IC50 result in experiment [1] is “Not Active”.

Take `CCOC(=O)c1c(N)sc(/N=C/c2cccs2)c1C(=O)OCC`: the “diameter of the inhibition zone (DIZ)” value is recorded as below 5.5 mm with Candida albicans, 10 mm in the experiment on Staphylococcus aureus and below 5.5 mm with Escherichia coli. Also, the pIC50 in the experiment on MCF7 was 4.58; in the experiment on Ishikawa, 4.40; in the experiment with T47D, 5.15; in the experiment with HeLa, 4.67; in experiment [1], 4.83.

For the molecule `CCOC(=O)c1c(N)sc(/N=C/c2ccc([N+](=O)[O-])cc2)c1C(=O)OCC`, the “diameter of the inhibition zone (DIZ)” value was below 5.5 mm with Candida albicans, 8.5 mm in the experiment with Staphylococcus aureus and below 5.5 mm in the experiment with Escherichia coli. The pIC50 was 5.89 in the experiment on MCF7; 3.85 with Ishikawa; 5.64 with T47D; 4.85 in the experiment on HeLa; 5.19 in experiment [1].
